Measured values: patent publication US4452778A, “Synergistic antibacterial compositions and method of treatment of infections caused by multiple antibiotic-resistant organisms” (Eli Lilly and Company, priority 1981, dated 1984)
Where two headings read alike, the source gives them in different places.

Assays:
[1] = cited from earlier work; for mean serum concentration: end of injection
[2] = tested on: E. coli; assay: Checkerboard broth dilution synergy study (mic); format: cell-based; conditions: Table II; for MIC: Escherichia coli, read-out: mic, drug alone
[3] = tested on: Klebsiella pneumoniae; assay: Checkerboard broth dilution synergy study (mic); format: cell-based; conditions: Table II; for MIC: Klebsiella pneumoniae, read-out: mic, drug alone
[4] = tested on: Serratia marcescens; assay: Checkerboard broth dilution synergy study (mic); format: cell-based; conditions: Table II; for MIC: Serratia marcescens, read-out: mic, drug alone
[5] = tested on: Proteus mirabilis; assay: Checkerboard broth dilution synergy study (mic); format: cell-based; conditions: Proteus mirabilis; Table II, strain Allen; read-out: mic, drug alone
[6] = tested on: Proteus rettgeri; assay: Checkerboard broth dilution synergy study (mic); format: cell-based; conditions: Providencia rettgeri, Table II, strain 65; read-out: mic, drug alone
[7] = tested on: Pseudomonas aeruginosa; assay: Checkerboard broth dilution synergy study (mic); format: cell-based; conditions: Table II; for MIC: Pseudomonas aeruginosa, read-out: mic, drug alone
[8] = tested on: Proteus vulgaris; assay: Checkerboard broth dilution synergy study (mic); format: cell-based; conditions: Proteus vulgaris, Table II, read-out: mic, drug alone
[9] = tested on: E. cloacae; assay: Checkerboard broth dilution synergy study (mic); format: cell-based; conditions: Table II; for MIC: Enterobacter cloacae, read-out: mic, drug alone

In the case of `CCN1CCN(C(=O)N[C@@H](C(=O)N[C@@H]2C(=O)N3[C@@H]2SC(C)(C)[C@@H]3C(=O)O)c2ccccc2)C(=O)C1=O` [piperacillin, sodium 6-(D(-)-α-(4-ethyl-2,3-dioxo-1-piperazinylcarbonylamino)-α-phenylacetamido]penicillinate], the “mean peak serum concentration” value ([1]; single intramuscular dose 0.5 g) is listed as 4.9 µg/mL, the “mean peak serum concentration” value ([1]; single intramuscular dose 1.0 g) is listed as 13.3 µg/mL and the “mean peak serum concentration” value ([1]; single intramuscular dose 2.0 g) is listed as 30.2 µg/mL. For the same compound, the mean serum concentration ([1]; single intravenous bolus 1.0 g) was 70.7 µg/mL, the mean serum concentration ([1]; single intravenous bolus 2.0 g) was 199.5 µg/mL and the mean serum concentration ([1]; single intravenous bolus 4.0 g) was 330.7 µg/mL. The mean serum concentration ([1]; single intravenous bolus 6.0 g) was 451.8 µg/mL, the MIC ([2]; strain 46-2) was greater than 64 µg/mL and the MIC ([2]; strain 77-3) was greater than 64 µg/mL. The MIC ([2]; strain 136-3) was greater than 64 µg/mL, the MIC ([2]; strain 1260) was greater than 64 µg/mL and the MIC ([2]; strain 1262) was greater than 64 µg/mL. The MIC ([2]; strain Briley) was greater than 64 µg/mL, the MIC ([2]; strain Dill) was 32 µg/mL and the “mic of each drug in combination I + P” value ([2]; strain 46-2) was 2 µg/mL. For the same compound, the “mic of each drug in combination I + P” value ([2]; strain 1253) was 4 µg/mL, the “mic of each drug in combination I + P” value ([2]; strain 1262) was 64 µg/mL and the “mic of each drug in combination I + P” value ([2]; strain 1415) was 2 µg/mL. The “mic of each drug in combination I + P” value ([2]; strain Briley) was 32 µg/mL, the MIC ([3]; strain 130) was greater than 64 µg/mL and the MIC ([3]; strain 214-1) was greater than 64 µg/mL. It also gave an MIC ([3]; strain 463) greater than 64 µg/mL, an MIC ([3]; strain 512) greater than 64 µg/mL and an MIC ([3]; strain 933) greater than 64 µg/mL. The MIC ([3]; strain 1204-2) was greater than 64 µg/mL, the “mic of each drug in combination I + P” value ([3]; strain 214-1) was 8 µg/mL and the “mic of each drug in combination I + P” value ([3]; strain 463) was 16 µg/mL. The “mic of each drug in combination I + P” value ([3]; strain 512) was 32 µg/mL, the “mic of each drug in combination I + P” value ([3]; strain 1204-2) was 2 µg/mL and the MIC ([4]; strain 100) was greater than 64 µg/mL. It also gave an MIC ([4]; strain 302-2) greater than 64 µg/mL, an MIC ([4]; strain 796) greater than 64 µg/mL and an MIC ([4]; strain 14142) greater than 64 µg/mL. The MIC ([4]; strain Townsend) was greater than 64 µg/mL, the “mic of each drug in combination I + P” value ([4]; strain 100) was 32 µg/mL and the “mic of each drug in combination I + P” value ([4]; strain 302-2) was 8 µg/mL. For the same compound, the “mic of each drug in combination I + P” value ([4]; strain 796) was 4 µg/mL, the “mic of each drug in combination I + P” value ([4]; strain 14142) was 8 µg/mL and the “mic of each drug in combination I + P” value ([4]; strain Townsend) was 64 µg/mL. The MIC [5] was greater than 64 µg/mL, the MIC [6] was 64 µg/mL and the MIC ([7]; strain 84) was 64 µg/mL. The MIC ([7]; strain 366) was greater than 128 µg/mL, the MIC ([7]; strain 424) was greater than 128 µg/mL and the MIC ([7]; strain 447) was greater than 128 µg/mL. For the same compound, the MIC ([7]; strain 1484) was 64 µg/mL, the MIC ([7]; strain Davis) was greater than 64 µg/mL and the “mic of each drug in combination I + P” value ([7]; strain 84) was 4 µg/mL. For the same compound, the “mic of each drug in combination I + P” value ([7]; strain 366) was 16 µg/mL, the “mic of each drug in combination I + P” value ([7]; strain 424) was 0.5 µg/mL and the “mic of each drug in combination I + P” value ([7]; strain 447) was 0.5 µg/mL. The “mic of each drug in combination I + P” value ([7]; strain 1484) was 8 µg/mL, the “mic of each drug in combination I + P” value ([7]; strain Davis) was 16 µg/mL and the MIC ([8]; strain 363) was greater than 64 µg/mL. For the same compound, the MIC ([8]; strain Shide) was greater than 64 µg/mL, the MIC ([9]; strain 1246) was greater than 64 µg/mL and the MIC ([9]; strain 1253) was greater than 64 µg/mL. For the same compound, the MIC ([9]; strain 1415) was greater than 64 µg/mL, the MIC ([9]; strain B293) was greater than 64 µg/mL and the “mic of each drug in combination I + P” value ([9]; strain 1253) was 32 µg/mL. For the same compound, the “mic of each drug in combination I + P” value ([9]; strain B293) was 16 µg/mL.
